Columns and labels:
[1] = target: T1, aldosterone synthase (CYP11B2) (Macaca fascicularis, UniProt A0A2K5UPL9); test: Inhibition of aldosterone synthase (cynomolgus adrenal mitochondria, aldosterone by mass spectrometry); assay type: biochemical, cynomolgus monkey; conditions: cynomolgus adrenal gland mitochondria, 2 μM corticosterone substrate, 90 minutes at 37° C.
T1 construct: cynomolgus adrenal gland mitochondria as the source of aldosterone synthase (CYP11B2); from tissue; host or cells: cynomolgus monkey adrenal gland mitochondria
T1 sequence (A0A2K5UPL9 1-503): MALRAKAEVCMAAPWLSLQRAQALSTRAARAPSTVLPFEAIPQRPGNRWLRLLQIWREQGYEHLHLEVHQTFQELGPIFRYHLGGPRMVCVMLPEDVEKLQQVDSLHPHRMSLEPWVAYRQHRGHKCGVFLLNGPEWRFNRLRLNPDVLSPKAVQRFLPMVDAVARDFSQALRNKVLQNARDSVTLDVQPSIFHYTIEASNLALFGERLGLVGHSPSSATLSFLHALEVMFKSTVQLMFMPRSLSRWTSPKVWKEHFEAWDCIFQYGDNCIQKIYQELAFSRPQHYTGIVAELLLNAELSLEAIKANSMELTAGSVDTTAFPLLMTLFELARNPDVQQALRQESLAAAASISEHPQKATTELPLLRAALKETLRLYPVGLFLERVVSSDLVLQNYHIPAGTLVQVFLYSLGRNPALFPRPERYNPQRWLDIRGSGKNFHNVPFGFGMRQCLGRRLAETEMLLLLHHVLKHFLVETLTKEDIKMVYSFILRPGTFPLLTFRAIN
Procedure, shortened: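 Cynomolgus adrenal mitochondria (50 units CYP11B2 activity) with 2 μM corticosterone in 100 mM potassium phosphate pH 7.4, 1% DMSO. Started with 1 mM NADPH, 90 min at 37° C. Aldosterone measured by mass spectrometry; IC50 from 4-parameter logistic fit, NADPH-free reactions as blank.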

[2] = target: cortisol synthase (CYP11B1) (Macaca fascicularis, UniProt A0A2K5ULY1); test: Inhibition of cortisol synthesis (cynomolgus adrenal mitochondria, cortisol by mass spectrometry); assay type: biochemical, cynomolgus monkey; conditions: cynomolgus adrenal gland mitochondria, 11-deoxycortisol as substrate, cortisol measured as product; read-out: CYP11B1 Inhibition IC50
Procedure, shortened: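 Cynomolgus adrenal mitochondria supplied CYP11B1 (150 units) with 11-deoxycortisol as substrate, plus NADPH; cortisol product measured by mass spectrometry. Activity expressed as % of compound-free NADPH control across compound concentrations; IC50 from 4-parameter logistic fit.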

IC50 [1] [nM]	IC50 [2] [nM]	Compound
44	4000	CN(C)C(=O)CCOc1ccc(Cc2onc3c2C(=O)CC(C)(C)C3)cc1 [Cpd 82, 3-[4-(6,6-Dimethyl-4-oxo-4,5,6,7-tetrahydro-benzo[c]isoxazol-3-ylmethyl)-phenoxy]-N,N-dimethyl-propionamide]
69	2700	CC1(C)CC(=O)c2c(noc2Cc2ccc(OCCC(=O)N3CC[C@@H](O)C3)cc2)C1 [Cpd 83, 3-{4-[3-((R)-3-Hydroxy-pyrrolidin-1-yl)-3-oxo-propoxy]-benzyl}-6,6-dimethyl-6,7-dihydro-5H-benzo[c]isoxazol-4-one]
56	6500	CC1(C)CC(=O)c2c(noc2Cc2ccc(OCCS(C)(=N)=O)cc2)C1 (stereo not drawn) [Cpd 85, 3-[4-(2-Methanesulfoximine-ethoxy)-benzyl]-6,6-dimethyl-6,7-dihydro-5H-benzo[c]isoxazol-4-one]
220	77000	CC1(C)Cc2noc(Cc3ccc(C#N)cc3)c2C(=O)O1 [Cpd 87, 4-(6,6-Dimethyl-4-oxo-6,7-dihydro-4H-pyrano[4,3-c]isoxazol-3-ylmethyl)-benzonitrile]
190	25000	CC1(C)Cc2noc(Cc3ccc(F)cc3)c2C(=O)O1 [Cpd 88, 3-(4-Fluoro-benzyl)-6,6-dimethyl-6,7-dihydro-pyrano[4,3-c]isoxazol-4-one]
27	9800	COc1ccc(Cc2onc3c2C(=O)OC(C)(C)C3)cc1 [Cpd 89, 3-(4-Methoxy-benzyl)-6,6-dimethyl-6,7-dihydro-pyrano[4,3-c]isoxazol-4-one]
16	4600	CC1(C)Cc2noc(Cc3ccc(OCCCS(C)(=O)=O)cc3)c2C(=O)O1 [Cpd 90, 3-[4-(3-Methanesulfonyl-propoxy)-benzyl]-6,6-dimethyl-6,7-dihydro-pyrano[4,3-c]isoxazol-4-one]
120	21000	CC1(C)Cc2noc(Cc3ccc(OCCS(C)(=O)=O)cc3)c2C(=O)O1 [Cpd 91, 3-[4-(2-Methanesulfonyl-ethoxy)-benzyl]-6,6-dimethyl-6,7-dihydro-pyrano[4,3-c]isoxazol-4-one]
340	69000	CC1(C)Cc2noc(CC3CCOCC3)c2C(=O)O1 [Cpd 92, 6,6-Dimethyl-3-(tetrahydro-pyran-4-ylmethyl)-6,7-dihydro-pyrano[4,3-c] isoxazol-4-one]
73	2600	CC1(C)Cc2noc(Cc3ccc(C(=O)N4CC[C@@H](O)C4)cc3)c2C(=O)O1 [Cpd 93, 3-[4-((R)-3-Hydroxy-pyrrolidine-1-carbonyl)-benzyl]-6,6-dimethyl-6,7-dihydro-pyrano[4,3-c]isoxazol-4-one]
42	4300	CC1(C)Cc2noc(Cc3ccc(C(=O)NCCS(C)(=O)=O)cc3)c2C(=O)O1 [Cpd 94, 4-(6,6-Dimethyl-4-oxo-6,7-dihydro-4H-pyrano[4,3-c]isoxazol-3-ylmethyl)-N-(2-methanesulfonyl-ethyl)-benzamide]
71	16000	CC1(C)Cc2noc(Cc3ccc(C(N)=O)cc3)c2C(=O)O1 [Cpd 95, 4-(6,6-Dimethyl-4-oxo-6,7-dihydro-4H-pyrano[4,3-c]isoxazol-3-ylmethyl)-benzamide]
73	10000	CN(CCO)C(=O)c1ccc(Cc2onc3c2C(=O)OC(C)(C)C3)cc1 [Cpd 96, 4-(6,6-Dimethyl-4-oxo-6,7-dihydro-4H-pyrano[4,3-c]isoxazol-3-ylmethyl)-N-(2-hydroxy-ethyl)-N-methyl-benzamide]
170	11000	CN1CCN(C(=O)c2ccc(Cc3onc4c3C(=O)OC(C)(C)C4)cc2)CC1=O [Cpd 97, 6,6-Dimethyl-3-[4-(4-methyl-3-oxo-piperazine-1-carbonyl)-benzyl]-6,7-dihydro-pyrano[4,3-c]isoxazol-4-one]

Compound	IC50 [1] [nM]	IC50 [2] [nM]
CC1(C)CC(=O)c2c(noc2Cc2ccc(OCCCC(=O)N3CC[C@@H](O)C3)cc2)C1 [Cpd 84, 3-{4-[4-((R)-3-Hydroxy-pyrrolidin-1-yl)-4-oxo-butoxy]-benzyl}-6,6-dimethyl-6,7-dihydro-5H-benzo[c]isoxazol-4-one]	69	6900

— patent US10131642B1, “Aldosterone synthase inhibitors” (Boehringer Ingelheim International GmbH, priority 2015, dated 2018)
